Measurements: PubChem BioAssay (NCI)
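Step 1: Grow cells in 96-well plates. Step 2: Expose to compound for 48 hours at 5 concentrations. Step 3: Interpolate endpoints linearly; if unreached, use highest concentration. TGI: concentration producing complete growth inhibition.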

How the values were obtained:
Test in all cases: NCI-60 cell line screen, 48 h
SK-OV-3 ovarian = system: SK-OV-3 ovarian
UACC-62 melanoma = system: UACC-62 melanoma
SK-MEL-2 melanoma = system: SK-MEL-2 melanoma
SNB-19 CNS = system: SNB-19 CNS
KM12 colon = system: KM12 colon
HT29 colon = system: HT29 colon
HL-60(TB) leukemia = system: HL-60(TB) leukemia
EKVX NSCLC = system: EKVX NSCLC
MDA-MB-435 = system: MDA-MB-435
SF-539 CNS = system: SF-539 CNS
PC-3 prostate = system: PC-3 prostate
HS 578T breast = system: HS 578T breast
RPMI-8226 leukemia = system: RPMI-8226 leukemia
UACC-257 melanoma = system: UACC-257 melanoma
OVCAR-8 ovarian = system: OVCAR-8 ovarian
SR leukemia = system: SR leukemia
LOX IMVI melanoma = system: LOX IMVI melanoma
T-47D breast = system: T-47D breast
NCI-H23 lung = system: NCI-H23 lung
MDA-MB-231 breast = system: MDA-MB-231 breast
M14 melanoma = system: M14 melanoma
IGROV1 ovarian = system: IGROV1 ovarian
SW-620 colon = system: SW-620 colon
MALME-3M melanoma = system: MALME-3M melanoma
HCT-116 colon = system: HCT-116 colon
SK-MEL-28 melanoma = system: SK-MEL-28 melanoma
CCRF-CEM leukemia = system: CCRF-CEM leukemia
NCI-H460 lung = system: NCI-H460 lung
SK-MEL-5 melanoma = system: SK-MEL-5 melanoma
786-0 renal = system: 786-0 renal
U251 CNS = system: U251 CNS
DU-145 prostate = system: DU-145 prostate
SF-268 CNS = system: SF-268 CNS
RXF 393 renal = system: RXF 393 renal
HOP-62 NSCLC = system: HOP-62 NSCLC
SF-295 CNS = system: SF-295 CNS
NCI-H226 lung = system: NCI-H226 lung
SNB-75 CNS = system: SNB-75 CNS
MCF7 breast = system: MCF7 breast
HCT-15 colon = system: HCT-15 colon
HOP-92 NSCLC = system: HOP-92 NSCLC
SN12C renal = system: SN12C renal
BT-549 breast = system: BT-549 breast
A549 NSCLC = system: A549 NSCLC
OVCAR-5 ovarian = system: OVCAR-5 ovarian
TK-10 renal = system: TK-10 renal
HCC-2998 colon = system: HCC-2998 colon
K-562 leukemia = system: K-562 leukemia
MOLT-4 leukemia = system: MOLT-4 leukemia
ACHN renal = system: ACHN renal
A498 renal = system: A498 renal

Q: With `O=C1C(NCCF)=C(Cl)C(=O)c2ncccc21` as the compound, how does the TGI (SK-OV-3 ovarian) read?
A: 3280 nM

Q: And the TGI (UACC-62 melanoma)?
A: 1250 nM

Q: What about the TGI (SK-MEL-2 melanoma) of the same compound?
A: 794 nM

Q: And the TGI (SNB-19 CNS)?
A: 2680 nM

Q: And the TGI (KM12 colon)?
A: 2930 nM

Q: And the TGI (HT29 colon)?
A: 6150 nM

Q: And the TGI (HL-60(TB) leukemia)?
A: 854 nM

Q: And the TGI (EKVX NSCLC)?
A: 3470 nM

Q: And the TGI (MDA-MB-435)?
A: 353 nM

Q: And the TGI (SF-539 CNS)?
A: 2340 nM

Q: And the TGI (PC-3 prostate)?
A: 3450 nM

Q: What about the TGI (HS 578T breast) of the same compound?
A: 4010 nM

Q: What about the TGI (RPMI-8226 leukemia) of the same compound?
A: 1780 nM

Q: And the TGI (UACC-257 melanoma)?
A: 3230 nM

Q: What about the TGI (OVCAR-8 ovarian) of the same compound?
A: 3270 nM

Q: What about the TGI (SR leukemia) of the same compound?
A: 5350 nM

Q: And the TGI (LOX IMVI melanoma)?
A: 1610 nM

Q: And the TGI (T-47D breast)?
A: 5040 nM

Q: What about the TGI (NCI-H23 lung) of the same compound?
A: 2800 nM

Q: What about the TGI (MDA-MB-231 breast) of the same compound?
A: 5190 nM

Q: What about the TGI (M14 melanoma) of the same compound?
A: 2280 nM

Q: And the TGI (IGROV1 ovarian)?
A: 3280 nM

Q: And the TGI (SW-620 colon)?
A: 2150 nM

Q: What about the TGI (MALME-3M melanoma) of the same compound?
A: 1200 nM

Q: And the TGI (HCT-116 colon)?
A: 2400 nM

Q: What about the TGI (SK-MEL-28 melanoma) of the same compound?
A: 2000 nM

Q: And the TGI (CCRF-CEM leukemia)?
A: 695 nM

Q: What about the TGI (NCI-H460 lung) of the same compound?
A: 1680 nM

Q: What about the TGI (SK-MEL-5 melanoma) of the same compound?
A: 343 nM

Q: And the TGI (786-0 renal)?
A: 2510 nM

Q: What about the TGI (U251 CNS) of the same compound?
A: 2000 nM

Q: And the TGI (DU-145 prostate)?
A: 2330 nM

Q: And the TGI (SF-268 CNS)?
A: 4170 nM

Q: And the TGI (RXF 393 renal)?
A: 2010 nM

Q: What about the TGI (HOP-62 NSCLC) of the same compound?
A: 3470 nM

Q: What about the TGI (SF-295 CNS) of the same compound?
A: 3020 nM

Q: What about the TGI (NCI-H226 lung) of the same compound?
A: 3660 nM

Q: What about the TGI (SNB-75 CNS) of the same compound?
A: 1930 nM

Q: And the TGI (MCF7 breast)?
A: 2280 nM

Q: What about the TGI (HCT-15 colon) of the same compound?
A: 2080 nM

Q: And the TGI (HOP-92 NSCLC)?
A: 3670 nM

Q: And the TGI (SN12C renal)?
A: 2200 nM

Q: And the TGI (BT-549 breast)?
A: 2860 nM

Q: And the TGI (A549 NSCLC)?
A: 3790 nM

Q: And the TGI (OVCAR-5 ovarian)?
A: 3460 nM

Q: And the TGI (TK-10 renal)?
A: 3230 nM

Q: What about the TGI (HCC-2998 colon) of the same compound?
A: 2500 nM

Q: And the TGI (K-562 leukemia)?
A: 575 nM

Q: And the TGI (MOLT-4 leukemia)?
A: 3270 nM

Q: What about the TGI (ACHN renal) of the same compound?
A: 3620 nM

Q: And the TGI (A498 renal)?
A: 3170 nM
